Assay results: the NIST ThermoML archive (doi:10.1016/j.jct.2018.12.009)

Assay: molar heat capacity at constant volume
Conditions: Mass density=329.2 kg/m3

CC(C)O [propan-2-ol]
molar heat capacity at constant volume [J/K/mol]
Conditions	Fluid (supercritical or subcritical phases)	Liquid
314.29 K	177.46	–
314.52 K	182.81	–
314.8 K	184.67	–
315.05 K	181.49	–
315.3 K	177.88	–
315.42 K	176.26	–
315.61 K	174.88	–
315.8 K	178.6	–
341.91 K	203.12	–
342.08 K	202.22	–
342.2 K	203.54	–
342.32 K	207.27	–
342.49 K	201.32	–
342.67 K	203.72	–
342.79 K	202.76	–
342.91 K	201.62	–
343.03 K	204.08	–
369.05 K	225.9	–
369.16 K	220.01	–
369.28 K	231.31	–
369.39 K	222.83	–
369.5 K	225.96	–
369.67 K	223.55	–
369.84 K	221.75	–
369.96 K	221.03	–
370.07 K	219.47	–
391.32 K	243.38	–
391.53 K	248.85	–
391.54 K	243.44	–
391.65 K	246.93	–
391.76 K	235.69	–
391.87 K	241.16	–
391.98 K	242.54	–
392.09 K	244.11	–
392.2 K	243.2	–
416.55 K	258.83	–
416.65 K	260.09	–
416.76 K	252.52	–
416.86 K	257.99	–
416.97 K	255.76	–
417.08 K	261.47	–
417.18 K	252.94	–
417.29 K	253.84	–
417.4 K	259.73	–
417.5 K	261.17	–
442.12 K	262.92	–
442.23 K	265.86	–
442.33 K	272.53	–
442.43 K	265.68	–
442.54 K	266.76	–
442.64 K	267.6	–
442.74 K	270.13	–
442.85 K	265.86	–
463.48 K	270.31	–
463.58 K	271.63	–
463.78 K	270.31	–
463.83 K	274.63	–
463.97 K	279.44	–
464.18 K	278.72	–
464.27 K	280.16	–
464.42 K	278.24	–
464.97 K	277.34	–
465.27 K	272.77	–
465.34 K	278.54	–
482.51 K	288.1	–
482.6 K	289.9	–
482.7 K	288.46	–
482.8 K	287.73	–
482.89 K	288.34	–
482.99 K	292	–
483.09 K	287.19	–
483.18 K	291.64	–
500.85 K	316.94	–
500.95 K	311.35	–
501.04 K	310.87	–
501.14 K	313.94	–
501.23 K	314.06	–
501.33 K	310.75	–
501.42 K	316.76	–
501.53 K	318.08	–
501.62 K	320.49	–
501.81 K	316.64	–
501.9 K	317.06	–
503.92 K	322.05	–
504.02 K	325.72	–
504.11 K	323.31	–
504.31 K	318.86	–
504.5 K	325.72	–
504.59 K	319.65	–
504.98 K	328.36	–
505.08 K	326.92	–
505.27 K	325.96	–
505.37 K	325.35	–
506.43 K	328.06	–
506.53 K	330.64	–
506.62 K	335.93	–
506.72 K	332.69	–
506.82 K	332.27	–
506.97 K	330.22	–
507.11 K	342.54	–
507.2 K	339.6	–
507.3 K	339.42	–
507.4 K	335.93	–
507.5 K	343.02	–
507.59 K	338.94	–
507.69 K	354.86	–
507.79 K	347.95	–
507.89 K	352.76	–
508.04 K	358.17	–
508.16 K	363.76	218.14
508.18 K	–	208.53
508.28 K	–	195.91
508.37 K	–	187.8
508.47 K	–	185.69
508.57 K	–	186.9
508.67 K	–	192.91
508.76 K	–	186.9
509.35 K	–	179.56
509.45 K	–	180.16
509.55 K	–	178.84
509.64 K	–	179.98
509.79 K	–	177.46
509.99 K	–	177.28
510.14 K	–	178.12
510.23 K	–	177.94
510.33 K	–	176.68
510.48 K	–	178.6
516.9 K	–	176.74
516.99 K	–	176.8
517.08 K	–	176.8
517.27 K	–	172.17
521.87 K	–	173.13
521.96 K	–	168.57
522.14 K	–	173.19
522.33 K	–	168.63
522.42 K	–	171.63
522.51 K	–	173.85
522.6 K	–	175.18
530.01 K	–	168.39
532.04 K	–	168.27
535.11 K	–	168.33
540.06 K	–	168.39
545.13 K	–	168.63
560.04 K	–	169.77
570.09 K	–	173.85
580.16 K	–	174.22
590.07 K	–	176.38
600.1 K	–	178.6
